Data from ChEMBL document CHEMBL1122800, “Synthesis of a tricyclic aphidicolin analogue that inhibits DNA synthesis in vitro” (J Med Chem, 1984).
Activity calls are given as the source filed them. No cut-off for these calls is given here.

Experiments:
Nucleic Acid [1] = experiment: Ability of compound to inhibit DNA synthesis against the uptake of [3H]thymidine in freshly seeded cultures of SV-40 transformed WI-38 human lung fibroblast; NA = no activity
Nucleic Acid [2] = experiment: Ability of compound to inhibit DNA synthesis against the uptake of [3H]thymidine in freshly seeded cultures of SV-40 transformed WI-38 human lung fibroblast at a concentration 0.15 ug/mL.

Compound | inhibition (Nucleic Acid [1]) | inhibition (Nucleic Acid [2]) [%]
C[C@]12CCC(O)[C@@](C)(CO)[C@@H]1CCC1CC(=O)C[C@@H]12 (some centres not stated) | inactive | 
C[C@@]1(CO)[C@H](O)CC[C@@]2(C)[C@H]1CC[C@H]1C[C@@H]3C[C@@]12CC[C@]3(O)CO |  | 50
C[C@@]1(CO)C(O)CC[C@]2(C)C3CC(O)CC3CC[C@@H]12 (some centres not stated) |  | 50
C[C@]12CCC(O)[C@@](C)(CO)[C@@H]1CCC1C[C@H](O)C[C@@H]12 (some centres not stated) | inactive | 
C[C@]12CCC(O)[C@@](C)(CO)[C@@H]1CCC1CC(=O)C=C12 (some centres not stated) | inactive | 
C[C@]12CCC(O)[C@@](C)(CO)[C@@H]1CCC1CC(O)C=C12 (some centres not stated) | inactive | 
C[C@@]1(CO)C(O)CC[C@]2(C)C3CC(=O)CC3CC[C@@H]12 (some centres not stated) | inactive | 
